In article PMC7822819, “Discovery of a new class of integrin antibodies for fibrosis” (Scientific Reports, 2021):
“And” between values parts separate entries of the source, which are not always exact repeats. Equal values may be shown once.

Columns and labels:
[1] = target: T1, CHOK1-α5KO-mαvβ1 cells (Mus musculus, UniProt P09055+P43406); experiment: Cell adhesion assay (Epic) on fibronectin; type: cell-based; details: in words
T1 construct: expressed in transfected cells; host or cells: CHOK1 with endogenous hamster α5 deleted by CRISPR
Experimental: For plate preparation, Epic 384-well assay plates (Corning #5040) were washed with OptiMEM (Gibco #31985-070) and coated with murine fibronectin (Abcam #ab92784) at a concentration of 0.1 μg/well for CHO-a5KO-mαvβ1 cells; murine vitronectin (Abcam #ab92727) at 0.075 μg/well for CHO-mαvβ3 cells; or murine vitronectin at 0.125 μg/well for CHO-mαvβ5 (all at a volume of 25 μl/well in OptiMEM), for 1 h. Coating solution was then removed by flicking and plates were washed with OptiMEM and blocked with 25 μl/well of assay buffer [1% Ovalbumin (Sigma #A5503-10G) in OptiMEM containing 1X Pen-Strep (Gibco #15140-148)]. A 5-min baseline reading was taken on a Corning Epic Plate Reader (Model: Epic BT-157900) before removing the assay buffer and adding cells pre-incubated with inhibitors. The Epic plate reader detects cellular mass redistribution (adhesion) on the plate surface as a picometer wavelength shift over time. […] Cells were incubated with the inhibitors for 1 h at RT with gentle rocking, after which 50 μL per well was transferred to the Epic assay plate, and a time course of cell adhesion was monitored for an additional 3 h.

[2] = target: mouse αvβ1 (Mus musculus, UniProt P09055+P43406); experiment: Latent TGFβ activation assay (TMLC / CHOK1-integrin co-culture, PAI-1 luciferase); type: cell-based; design: expressed in transfected cells; details: in words
Experimental: (§1) Transfected mink lung epithelial cell (TMLC) cell line containing the TGFβ responsive PAI-1 promoter driving luciferase expression[29] and the CHO-K1 human and mouse αvβx integrin cell lines were grown under optimized growth conditions to 90% confluency. TMLC cells were trypsinized and plated at 25,000 cells/well in 50 μL in Costar clear bottom white walled plates. In a separate plate, 25 μL of serially diluted antibodies at 4X concentration were added to wells containing 25 μL of either 25,000 cells of human or mouse αvβx cells. After a brief mixing, the 50 μL mixture was transferred to the TMLC cell plates for a total volume of 100 μL and incubated at 37 °C for 16 h. 100 μL of ONE-Glo kit (#PRE6120) was added to each well and read after 3–5 min on the Envision plate reader.

[3] = target: human αvβ1 (Homo sapiens, UniProt P05556+P06756); experiment: as above; type: cell-based; design: expressed in transfected cells; details: in words
Experimental: as §1

[4] = target: human αvβ8 (Homo sapiens, UniProt P06756+P26012); experiment: as above; type: cell-based; design: expressed in transfected cells; details: in words
Experimental: as §1

[5] = Plasma total drug concentration in bleomycin model (LC-MS/MS); type: in vivo, mouse; details: 2 h after last dose, Day 19; MK-0429 200 mpk minipump, Nintedanib 60 mpk po qd; mean ± SE
Experimental: Mice at 12 ~ 13 weeks of age were randomized to 5 groups: saline, bleomycin instillation with vehicle (osmotic minipump), bleomycin instillation with MK-0429 treatment, bleomycin instillation with vehicle oral treatment, and bleomycin instillation with Nintedanib treatment. All mice were anaesthetized with isoflurane. Bleomycin was dosed by intra-tracheal (i.t) instillation in a volume of 50 µl, at a dose of 1unit /kg body weight. After instillation, mice were kept in a heads-up position for 2–5 min before putting into cages. MK-0429 (200 mg/kg) was administered by Osmotic pump from day 5 to day 14 and Nintedanib (60 mg/kg) was administered, p.o., q.d., for 14 days. Vehicle was dosed orally at 10 am daily from the day 5 to the end of the studies and dosing volume was 10 mL/kg. For plasma PK analysis, an aliquot of 50 μL plasma was spiked into a 96-well plate, and 200 μL of acetonitrile containing internal standard were added for protein precipitation. The mixture was vortexed, centrifuged at 4000 rpm for 20 min. 50 μL of supernatant were mixed with 200 μl H2O and the final solution were injected for LC–MS/MS analysis. The methods for quantitative analysis were developed on UPLC (Waters) chromatographic system equipped with an API4000 QTrap mass spectrometer (Applied Biosystems, Concord, Ontario, Canada). […]

human αvβ8, sequence (P06756 31-1048): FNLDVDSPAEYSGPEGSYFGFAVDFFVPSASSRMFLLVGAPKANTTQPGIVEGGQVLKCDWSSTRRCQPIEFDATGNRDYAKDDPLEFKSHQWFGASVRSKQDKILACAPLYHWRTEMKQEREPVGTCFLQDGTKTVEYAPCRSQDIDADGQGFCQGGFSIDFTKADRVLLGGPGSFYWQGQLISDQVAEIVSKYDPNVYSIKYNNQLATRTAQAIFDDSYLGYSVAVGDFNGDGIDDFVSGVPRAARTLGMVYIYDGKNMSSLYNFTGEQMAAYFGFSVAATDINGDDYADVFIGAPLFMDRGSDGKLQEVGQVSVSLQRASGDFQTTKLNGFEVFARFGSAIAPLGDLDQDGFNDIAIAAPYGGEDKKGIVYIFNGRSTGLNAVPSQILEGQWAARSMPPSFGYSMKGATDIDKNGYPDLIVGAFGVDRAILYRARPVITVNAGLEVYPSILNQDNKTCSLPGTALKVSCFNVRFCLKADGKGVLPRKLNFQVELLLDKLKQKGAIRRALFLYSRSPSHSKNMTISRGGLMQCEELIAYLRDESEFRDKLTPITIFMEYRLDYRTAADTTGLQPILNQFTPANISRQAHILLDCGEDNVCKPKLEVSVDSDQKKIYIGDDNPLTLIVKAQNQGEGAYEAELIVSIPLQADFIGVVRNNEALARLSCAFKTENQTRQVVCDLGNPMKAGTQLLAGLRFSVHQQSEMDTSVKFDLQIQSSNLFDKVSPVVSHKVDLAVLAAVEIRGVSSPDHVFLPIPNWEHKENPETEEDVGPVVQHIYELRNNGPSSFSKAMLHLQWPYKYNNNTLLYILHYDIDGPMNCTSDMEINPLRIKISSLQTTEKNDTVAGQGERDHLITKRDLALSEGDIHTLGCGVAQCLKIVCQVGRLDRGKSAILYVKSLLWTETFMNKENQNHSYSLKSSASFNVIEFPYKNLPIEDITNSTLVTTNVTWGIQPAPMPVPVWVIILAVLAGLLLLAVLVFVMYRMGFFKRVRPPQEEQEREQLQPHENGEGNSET
human αvβ8, sequence (P26012 43-769): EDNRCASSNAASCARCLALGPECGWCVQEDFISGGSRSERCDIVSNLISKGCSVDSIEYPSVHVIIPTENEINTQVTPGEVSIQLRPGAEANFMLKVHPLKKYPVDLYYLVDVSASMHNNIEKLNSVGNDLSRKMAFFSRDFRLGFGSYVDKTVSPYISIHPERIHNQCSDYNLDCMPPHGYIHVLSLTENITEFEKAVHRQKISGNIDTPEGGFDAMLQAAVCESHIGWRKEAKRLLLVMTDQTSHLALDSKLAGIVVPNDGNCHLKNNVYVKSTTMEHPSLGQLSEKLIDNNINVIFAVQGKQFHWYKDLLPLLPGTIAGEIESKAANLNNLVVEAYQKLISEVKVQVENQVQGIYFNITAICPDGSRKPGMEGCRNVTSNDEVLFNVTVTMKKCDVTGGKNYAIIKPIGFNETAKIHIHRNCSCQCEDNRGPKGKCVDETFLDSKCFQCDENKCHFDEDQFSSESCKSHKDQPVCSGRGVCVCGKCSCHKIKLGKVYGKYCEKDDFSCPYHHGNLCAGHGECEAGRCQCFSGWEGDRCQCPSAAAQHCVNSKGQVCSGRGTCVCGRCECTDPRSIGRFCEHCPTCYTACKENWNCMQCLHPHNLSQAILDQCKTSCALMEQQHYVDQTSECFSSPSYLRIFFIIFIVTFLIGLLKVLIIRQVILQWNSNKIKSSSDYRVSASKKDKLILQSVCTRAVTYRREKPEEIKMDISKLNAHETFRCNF
human αvβ1, sequence (P06756 31-1048): as the sequence (P06756 31-1048) above
human αvβ1, sequence (P05556 21-798): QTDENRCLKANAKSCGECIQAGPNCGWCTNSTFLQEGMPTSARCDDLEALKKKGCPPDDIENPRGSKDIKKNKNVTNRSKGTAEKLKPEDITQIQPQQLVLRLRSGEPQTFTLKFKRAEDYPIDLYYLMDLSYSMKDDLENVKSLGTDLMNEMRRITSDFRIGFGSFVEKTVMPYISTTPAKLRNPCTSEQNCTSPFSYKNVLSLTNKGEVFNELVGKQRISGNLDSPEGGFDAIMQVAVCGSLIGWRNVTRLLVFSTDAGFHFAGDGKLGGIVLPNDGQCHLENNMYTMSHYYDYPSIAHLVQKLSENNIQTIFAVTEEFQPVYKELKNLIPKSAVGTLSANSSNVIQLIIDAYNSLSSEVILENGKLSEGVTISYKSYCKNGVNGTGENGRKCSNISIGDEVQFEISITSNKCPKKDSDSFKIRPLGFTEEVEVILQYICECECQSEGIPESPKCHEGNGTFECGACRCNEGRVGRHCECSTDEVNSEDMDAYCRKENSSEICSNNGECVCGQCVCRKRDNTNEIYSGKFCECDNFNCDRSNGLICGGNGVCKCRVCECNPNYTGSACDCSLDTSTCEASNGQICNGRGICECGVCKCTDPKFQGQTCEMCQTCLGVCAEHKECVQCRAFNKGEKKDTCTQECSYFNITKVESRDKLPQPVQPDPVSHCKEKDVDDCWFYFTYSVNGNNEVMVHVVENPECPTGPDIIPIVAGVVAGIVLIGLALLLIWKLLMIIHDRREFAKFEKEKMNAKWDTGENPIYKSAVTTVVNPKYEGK
T1 sequence (P43406 31-1044): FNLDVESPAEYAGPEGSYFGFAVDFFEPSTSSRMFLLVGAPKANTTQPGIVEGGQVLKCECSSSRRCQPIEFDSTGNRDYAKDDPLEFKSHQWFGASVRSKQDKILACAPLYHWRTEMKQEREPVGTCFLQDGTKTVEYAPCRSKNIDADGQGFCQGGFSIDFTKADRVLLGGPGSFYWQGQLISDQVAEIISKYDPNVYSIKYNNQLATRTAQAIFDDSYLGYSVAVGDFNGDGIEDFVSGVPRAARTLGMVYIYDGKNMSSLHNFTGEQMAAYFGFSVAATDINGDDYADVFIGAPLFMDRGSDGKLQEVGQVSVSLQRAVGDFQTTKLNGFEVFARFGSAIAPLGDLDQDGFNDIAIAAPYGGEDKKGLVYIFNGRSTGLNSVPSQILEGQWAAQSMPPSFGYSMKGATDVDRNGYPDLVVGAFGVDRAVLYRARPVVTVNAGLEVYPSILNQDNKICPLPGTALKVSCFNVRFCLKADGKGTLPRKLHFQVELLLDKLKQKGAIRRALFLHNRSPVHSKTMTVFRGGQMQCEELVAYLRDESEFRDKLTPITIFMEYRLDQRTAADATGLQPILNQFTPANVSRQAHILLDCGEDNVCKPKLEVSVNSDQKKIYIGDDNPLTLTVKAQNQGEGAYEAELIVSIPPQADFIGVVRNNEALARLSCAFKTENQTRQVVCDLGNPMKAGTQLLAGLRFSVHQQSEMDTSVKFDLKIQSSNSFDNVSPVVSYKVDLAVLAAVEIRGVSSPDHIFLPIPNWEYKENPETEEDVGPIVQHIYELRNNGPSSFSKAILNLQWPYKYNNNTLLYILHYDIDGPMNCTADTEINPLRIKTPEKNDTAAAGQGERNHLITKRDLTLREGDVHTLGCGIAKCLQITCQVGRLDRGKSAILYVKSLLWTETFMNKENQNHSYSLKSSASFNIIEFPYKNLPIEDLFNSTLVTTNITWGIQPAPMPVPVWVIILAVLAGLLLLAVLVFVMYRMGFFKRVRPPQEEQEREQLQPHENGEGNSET
T1 sequence (P09055 21-798): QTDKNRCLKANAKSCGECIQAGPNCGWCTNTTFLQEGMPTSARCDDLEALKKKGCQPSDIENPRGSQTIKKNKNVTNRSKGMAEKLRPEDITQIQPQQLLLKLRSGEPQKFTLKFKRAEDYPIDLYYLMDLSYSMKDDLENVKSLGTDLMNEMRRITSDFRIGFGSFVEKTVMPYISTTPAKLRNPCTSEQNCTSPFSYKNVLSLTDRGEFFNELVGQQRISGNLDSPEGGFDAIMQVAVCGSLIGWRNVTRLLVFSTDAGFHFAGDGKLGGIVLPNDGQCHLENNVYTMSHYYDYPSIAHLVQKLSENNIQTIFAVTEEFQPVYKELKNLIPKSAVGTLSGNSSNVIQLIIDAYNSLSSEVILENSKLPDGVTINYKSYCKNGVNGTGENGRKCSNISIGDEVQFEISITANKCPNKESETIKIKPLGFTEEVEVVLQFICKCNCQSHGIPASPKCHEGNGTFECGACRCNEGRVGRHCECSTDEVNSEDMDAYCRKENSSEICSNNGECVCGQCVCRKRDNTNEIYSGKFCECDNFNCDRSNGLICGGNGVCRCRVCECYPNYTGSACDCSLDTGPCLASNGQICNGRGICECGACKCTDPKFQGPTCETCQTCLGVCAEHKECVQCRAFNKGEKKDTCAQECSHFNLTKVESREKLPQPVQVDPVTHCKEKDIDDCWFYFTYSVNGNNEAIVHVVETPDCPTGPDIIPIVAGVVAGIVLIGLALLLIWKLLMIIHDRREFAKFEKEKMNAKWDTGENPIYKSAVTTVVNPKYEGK
mouse αvβ1, sequence (P43406 31-1044): as the sequence (P43406 31-1044) above
mouse αvβ1, sequence (P09055 21-798): as the sequence (P09055 21-798) above

COc1ccc(C(CC(=O)O)N2CCN(CCCc3ccc4c(n3)NCCC4)C2=O)cn1 (centres unmarked) [MK-0429]
Effect on cell adhesion, mouse αvβ1-expressing CHOK1-α5KO cells [1]: potently reduced
Inhibition of latent TGFβ activation, mouse αvβ1 co-culture [2]: strong inhibitory effect
Inhibition of latent TGFβ activation, human αvβ1 co-culture [3]: strong inhibitory effect
Inhibition of latent TGFβ activation, human αvβ8 co-culture [4]: strong inhibitory effect
Mean plasma total drug concentration [5]: 3701 ng/mL and 3701 ± 902 ng/mL
